Assay results taken from publication PMC12552119, “Tailored structured peptide design with a key-cutting machine approach” (Nature Machine Intelligence, 2025).
Entries after “also recorded” stand apart in the source; their conditions may differ. Read-outs that look alike come from different tables or passages of the source. Where no end group is shown, it is not given here.

Tests used:
A. baumannii ATCC 19606 [1] = type: cell-based, Acinetobacter baumannii
Method: (§1) Fig. 2 Antimicrobial activity and secondary structure of computationally designed peptides. a, Structure prediction of the synthesized peptides. b, Heatmap of the antimicrobial activities of the peptides against 11 clinically relevant pathogens, including four strains resistant to conventional antibiotics. Briefly, 10^6 bacterial cells and serially diluted peptides (1-64 μmol l^−1) were incubated at 37 °C. One day after treatment, the optical density at 600 nm was measured in a microplate reader to evaluate bacterial growth in the presence of the peptides. MIC values in the heatmap are the mode of the replicates in each condition. c–f, Ternary plots showing the percentage of secondary structure for each peptide (at 50 μmol l^−1) in four different solvents: water (c), 60% TFE in water (d), 10 mmol l^−1 SDS in water (e) and 50% methanol (MeOH) in water (f). Secondary structure fractions were calculated using the BeStSel server. […] An error of one column cannot be fully excluded. / Panel b: AT1, AT2, AT3 and all blank cells print no number and are left out.
(§2) In this study, we used the following pathogenic bacterial strains: A. baumannii ATCC 19606, E. coli AIC221 (E. coli MG1655 phnE_2::FRT (control strain for AIC222)) and E. coli AIC222 (E. coli MG1655 pmrA53 phnE_2::FRT (polymyxin resistant; colistin-resistant strain)), Klebsiella pneumoniae ATCC 13883, Pseudomonas aeruginosa PAO1, P. aeruginosa PA14 and Staphylococcus aureus ATCC 12600. All pathogens were grown in Luria–Bertani (LB) broth and on LB agar. Pseudomonas isolation (P. aeruginosa strains) agar plates were exclusively used in the case of Pseudomonas species. In all the experiments, bacteria were inoculated from one isolated colony and grown overnight (16 h) in liquid medium at 37 °C. On the following day, inocula were diluted 1:100 in fresh media and incubated at 37 °C to mid-logarithmic phase.
(§3) Broth microdilution assays[64] were conducted to establish the MIC for each peptide. Peptides were added to untreated polystyrene 96-well microtiter plates and serially diluted twofold in sterile water, ranging from 1 to 64 μmol l^−1. A bacterial inoculum at a concentration of 10^6 CFU ml^−1 in LB medium was then mixed in a 1:1 ratio with the peptide solution. […] Each assay was performed in three independent replicates.

E. coli ATCC 11775 = type: cell-based, Escherichia coli; conditions: ATCC 11775, 24 h
Method: as §1
Broth microdilution assays[64] were conducted to establish the MIC for each peptide. Peptides were added to untreated polystyrene 96-well microtiter plates and serially diluted twofold in sterile water, ranging from 1 to 64 μmol l^−1. […]

K. pneumoniae ATCC 13883 = type: cell-based, Klebsiella pneumoniae; conditions: ATCC 13883, 24 h
Method: as §1, §2, §3

P. aeruginosa PA14 = type: cell-based, Pseudomonas aeruginosa; conditions: PA14, 24 h
Method: as §1, §2
(§4) Broth microdilution assays[64] were conducted to establish the MIC for each peptide. […]

P. aeruginosa PAO1 = type: cell-based, Pseudomonas aeruginosa; conditions: PAO1, 24 h
Method: as §1, §2, §4

[2] = test system: E. faecium ATCC 700221 - VRE; type: cell-based; conditions: ATCC 700221, 24 h
Method: as §1, §3

A. baumannii ATCC 19606 [3] = test: Skin abscess infection mouse model, bacterial load; type: in vivo, CD-1 mice; conditions: single dose at MIC on the wound 1 h after infection, n = 6
Method: Fig. 4 Anti-infective activity of designed peptides in a skin scarification animal model. a, Schematic representation of the skin abscess mouse model used to assess the anti-infective activity of the designed peptides (n = 6) against A. baumannii ATCC 19606. […] Statistical significance in panel b was determined using one-way ANOVA followed by Dunnett’s test; P values are shown in the graphs. In the violin, the centre line represents the […], the box limits the first and third quartiles and the whiskers (minima and maxima) represent 1.5 × the interquartile range. Panel a created with BioRender.com. Source data
The backs of six-week-old female CD-1 mice under anaesthesia were shaved and injured with a superficial linear skin abrasion made with a needle. An aliquot of A. baumannii ATCC 19606 (2 × 10^6 CFU ml^−1; 20 μl) previously grown in LB medium until 0.5 optical density ml^−1 (optical value at 600 nm) and then washed twice with sterile PBS (pH 7.4, 9,391 g for 3 min) was added to the scratched area. Peptides diluted in sterile water at MIC value were administered to the wound area 1 h after the infection. Two and four days after infection animals were euthanized, and the scarified skin was excised, homogenized using a bead beater (25 Hz for 20 min), tenfold serially diluted, and plated on McConkey agar plates for CFU quantification. […]

[4] = Mouse weight in the skin abscess model; set-up: species or system CD-1 mice; conditions: in vivo
Method: The backs of six-week-old female CD-1 mice under anaesthesia were shaved and injured with a superficial linear skin abrasion made with a needle. An aliquot of A. baumannii ATCC 19606 (2 × 10^6 CFU ml^−1; 20 μl) previously grown in LB medium until 0.5 optical density ml^−1 (optical value at 600 nm) and then washed twice with sterile PBS (pH 7.4, 9,391 g for 3 min) was added to the scratched area. Peptides diluted in sterile water at MIC value were administered to the wound area 1 h after the infection. Two and four days after infection animals were euthanized, and the scarified skin was excised, homogenized using a bead beater (25 Hz for 20 min), tenfold serially diluted, and plated on McConkey agar plates for CFU quantification. The experiments were performed using six mice per group. Mice were housed in groups of three and maintained under a 12-h light/dark cycle at 22 °C with humidity controlled at 50%. The skin abscess infection mouse model was revised and approved by University Laboratory Animal Resources from the University of Pennsylvania (protocol 806763).
(§5) Figure S6. Cytotoxicity and anti-infective activity of designed peptides. (a) Cytotoxic effects of increasing concentrations ([…]) of each peptide on human embryonic kidney (HEK293T) cells after 24 h of treatment. Mouse weight was monitored throughout the duration of the (b) skin abscess model (4 days total) and the (e) deep thigh infection model (8 days total) to assess potential toxic effects of both the bacterial load and the designed peptides. (c) Schematic of the neutropenic thigh infection mouse model, where the designed peptides were administered intraperitoneally. Anti-infective activity against A. baumannii ATCC 19606 was evaluated 4 days after intraperitoneal peptide administration (n = 6). (d) Four days after intraperitoneal injection, NE2 at its MIC (32 µmol L-1) inhibited by […]
(§6) Statistical significance in panel d was determined using one-way ANOVA followed by Dunnett’s test; P values are shown in the graphs. […]

A. baumannii ATCC 19606 [5] = test: Deep thigh infection mouse model, bacterial load; type: in vivo, CD-1 mice; conditions: n = 6; for reduction of A. baumannii bacterial load, deep thigh infection model: neutropenic mice, peptides intraperitoneally
Method: (§7) Six-week-old female CD-1 mice were rendered neutropenic by two doses of cyclophosphamide (150 mg kg^−1 and 100 mg kg^−1) applied intraperitoneally 3 and 1 d before the infection. On day 4 of the experiment, the mice were infected in their right thighs with a 100-μl intramuscular injection of the A. baumannii ATCC 19606 in PBS at concentration of 5 × 10^6 CFU ml^−1. The bacterial cells were grown in LB broth, washed twice with PBS solution and diluted at the desired concentration. The peptides were administrated intraperitoneally 2 h after the infection. Two days after infection mice were euthanized, and the tissue from the right thigh was excised, homogenized using a bead beater (25 Hz for 20 min), tenfold serially diluted, and plated on McConkey agar plates for bacterial colony counting. The experiments were performed using six mice per group. Mice were housed in groups of three and maintained under a 12-h light/dark cycle at 22 °C with humidity controlled at 50%. The deep thigh infection mouse model was revised and approved by University Laboratory Animal Resources from the University of Pennsylvania (protocol 807055).
as §5, §6

[6] = type: in vivo, CD-1 mice; conditions: deep thigh infection model
Method: as §7, with “Mice were housed in groups of three and maintained under a 12-h light/dark cycle at 22 °C with humidity controlled at 50%. The deep thigh infection mouse model was revised and approved by University Laboratory Animal Resources from the University of Pennsylvania (protocol 807055).” left out
Figure S6. […] Mouse weight was monitored throughout the duration of the (b) skin abscess model (4 days total) and the (e) deep thigh infection model (8 days total) to assess potential toxic effects of both the bacterial load and the designed peptides. […] Anti-infective activity against A. baumannii ATCC 19606 was evaluated 4 days after intraperitoneal peptide administration (n = 6). […]
as §6

E. coli AIC221 = type: cell-based, Escherichia coli; conditions: AIC221, 24 h
Method: as §1, with “out. […]” for “out.”

A. baumannii ATCC 19606 [7] = test: Cytoplasmic-membrane depolarization, DiSC3-5; type: cell-based, Acinetobacter baumannii; conditions: DiSC3-5 fluorescence, peptides at their MIC, 60 min
Method: Fig. 3 Mechanism of action and cytotoxic activity of designed peptides. a, To assess whether the peptides act on bacterial membranes, all active peptides against A. baumannii American Type Culture Collection (ATCC) 19606 were subjected to outer-membrane permeabilization, and peptides active against A. baumannii ATCC 19606 and vancomycin-resistant E. faecalis ATCC 700802 were tested in cytoplasmic-membrane depolarization assays. b, The fluorescent probe NPN was used to assess membrane permeabilization induced by the tested peptides. c,d, The fluorescent probe DiSC3-5 was used to evaluate membrane depolarization caused by the designed peptides in A. baumannii ATCC 19606 (c) and vancomycin-resistant E. faecalis ATCC 700802 (d). […] All experiments were performed in three independent replicates. […]
The cytoplasmic-membrane depolarization assay was performed using the membrane-potential-sensitive dye DiSC3-5. […] Membrane depolarization was then followed by reading changes in the fluorescence (λex = 622 nm, λem = 670 nm) over time for 60 min. The relative fluorescence was calculated using the untreated control (buffer + bacteria + fluorescent dye) as baseline and the following equation was applied to reflect the percentage difference between the baselines and the sample: percentagedifference=100×(fluorescencesample−fluorescenceuntreatedcontrol)/fluorescenceuntreatedcontrol. […]

HEK293T cells = conditions: cited from earlier work
Method: Cytotoxicity was evaluated using human embryonic kidney (HEK293T) cells (Fig. 3e)[45].

[8] = broth microdilution, LB, 10^6 CFU ml^-1, peptides 1-64 μmol l^-1, 24 h, 37 °C, OD600, mode of three replicates

HWKLIVRWKVQH [NG1]
MIC (A. baumannii ATCC 19606 [1]; ATCC 19606, 24 h): 4 µM
MIC (A. baumannii ATCC 19606 [1]; [8]): 4 µM
MIC (E. coli ATCC 11775): 16 µM
MIC (K. pneumoniae ATCC 13883): 4 µM
MIC (P. aeruginosa PA14): 16 µM
MIC (P. aeruginosa PAO1): 32 µM
MIC [2]: 4 µM
reduction of A. baumannii bacterial load, skin abscess model (A. baumannii ATCC 19606 [3]): up to two orders of magnitude; also recorded: inhibited the proliferation of the infection for up to 4 d after treatment
weight loss or skin damage [4]: No weight loss or skin damage
reduction of A. baumannii bacterial load, deep thigh infection model (A. baumannii ATCC 19606 [5]): up to two orders of magnitude
weight loss or skin damage [6]: No weight loss or skin damage

KFKLIVHYRICK [NG3]
MIC (A. baumannii ATCC 19606 [1]; ATCC 19606, 24 h): 32 µM
MIC (E. coli AIC221): 8 µM
MIC (K. pneumoniae ATCC 13883): 16 µM
cytoplasmic-membrane depolarization (A. baumannii ATCC 19606 [7]): particularly effective

KWKARIQFKAAH [NE2]
MIC (A. baumannii ATCC 19606 [1]; ATCC 19606, 24 h): 32 µM
MIC (A. baumannii ATCC 19606 [1]; [8]): 32 µM
MIC (E. coli ATCC 11775): 16 µM
MIC (K. pneumoniae ATCC 13883): 16 µM
MIC (P. aeruginosa PAO1): 64 µM
MIC [2]: 32 µM
reduction of A. baumannii bacterial load, skin abscess model (A. baumannii ATCC 19606 [3]): up to two orders of magnitude; also recorded: inhibited the proliferation of the infection for up to 4 d after treatment
weight loss or skin damage [4]: No weight loss or skin damage
inhibition of the A. baumannii ATCC19606 infection against the untreated control (A. baumannii ATCC 19606 [5]; four days after intraperitoneal injection, at its MIC): one order of magnitude
reduction of A. baumannii bacterial load, deep thigh infection model (A. baumannii ATCC 19606 [5]): up to two orders of magnitude
weight loss or skin damage [6]: No weight loss or skin damage

KWRLLIRWRIQK [IDR-2009]
cytotoxicity of the parental peptide (HEK293T cells): did show cytotoxicity
